# Tests used:
# Type in all cases: in vivo, mouse (C57BL/6)
# RM-1 = RM-1 subcutaneous syngeneic prostate cancer mouse model (Study 7), tumor growth inhibition; details: for Tumor size / TGI(%): RM-1 model, study end day Day 19; for Tumor size: Mean ± SEM, in mm³
# Procedure: (§1) In this example, the in vivo anti-tumor efficacy of ARI-001, ARI-002, ARI-003, and ARI-143 and their combinations with an anti-PD-1 antibody was evaluated using a panel of twelve subcutaneous syngeneic mouse tumor models.
# (§2) Eleven subcutaneous syngeneic mouse tumor models were generated by innoculating female BALB/C or C57BL/6 mice with cancer cells at their right lower or right front flank followed by randomization as detailed in Table 4 below.
# (§3) A solution of a rat monoclonal anti-mouse PD-1 antibody (isotype IgG2a, κ) at a concentration of 6.61 mg/ml was obtained from BioXcell (InVivoMAb anti-mouse PD-1 (CD279), Clone RMP1-14, Cat #BE0146)) and store at 4° C. The antibody solution was diluted with PBS to obtain a 1 mg/ml dosing solution.
# (§4) ARI-001, ARI-002, and ARI-003 powder was stored at −20° C. The powder of each compound was dissolved in DMSO to obtain dosing solutions at 106.7, 80, and 53.33 mg/ml for administration to mice at 160, 120, and 80 mg/kg, respectively. ARI-143 was similarly prepared.
# (§5) Twelve studies using the twelve subcutaneous syngeneic mouse tumor models were performed. In each study, 80 mice were enrolled and randomly allocated to eight different study groups, with 10 mice in each study group. The mean tumor size at randomization was approximately 80-120 mm^3 (around 100 mm^3). Randomization was performed based on “Matched distribution” randomization method (StudyDirector™ software, version 3.1.399.19). […] All the drugs and vehicle controls were injected to the mice intraperitoneally.
# (§6) After tumor cell inoculation, the animals were checked daily for morbidity and mortality. At the time of routine monitoring, the animals were checked for any effects of tumor growth and treatments on behavior such as mobility, food and water consumption, body weight gain/loss (body weights were measured twice or three times per week after randomization), and any other abnormalities. Mortality and observed clinical signs were recorded for individual animals. Tumor volumes were measured twice or three times weekly after randomization in two dimensions using a caliper, and the volume was expressed in mm^3 using the formula: […]
# (§7) where V is tumor volume, L is tumor length (the longest tumor dimension) and W is tumor width (the longest tumor dimension perpendicular to L).
# (§8) The study was terminated when the mean tumor volume (MTV) in the vehicle group reached a value of 2,000 mm^3. Tumor growth inhibition (TGI) is an indication of antitumor activity, and expressed as: […]
# (§9) where T and C are the MTV (or weight) of the treated and control groups, respectively, on a given day. Statistical analysis of the difference in MTV among the groups was conducted using the data collected on the day when the MTV of the vehicle group reached the humane endpoints, so that TGI could be derived for all or most mice enrolled in the study.
# (§10) Statistical analysis of differences in MTV among the groups was conducted by Independent-Samples T Test using the data collected. All data were analyzed with SPSS (Statistical Product and Service Solutions) version 18.0 (IBM, Armonk, N.Y., U.S.). P-values were rounded to three decimal places, with the exception that raw P-values less than 0.001 were stated as P<0.001. All tests were two-sided. P<0.05 was considered to be statistically significant.
# FIG. 66 is a graph showing the mean tumor volume on different study days in the study groups as indicated according to Study 7 (RM-1). The study end day was Day 19.
# LL/2 = LL/2 subcutaneous syngeneic lung cancer mouse model (Study 6), tumor growth inhibition; details: for Tumor size / TGI(%): LL/2 model, study end day Day 32; for Tumor size: Mean ± SEM, in mm³; for anti-tumor potency of anti-PD-1 antibody combined with the compound, compared to the antibody alone or the vehicle: LL/2 syngeneic lung cancer model
# Procedure: as §1, §2, §3, §4, §5, §6, §7, §8, §9, §10
# FIG. 65 is a graph showing the mean tumor volume on different study days in the study groups as indicated according to Study 6 (LL/2). The study end day was Day 32.
# MC38 = MC38 subcutaneous syngeneic colon cancer mouse model (Study 1), tumor growth inhibition; details: for TGI(%) / Tumor size (Mean ± SEM): MC38 model, i.p., ARI compounds 160 mg/kg QD × 17 doses, Anti-PD-1 10 BIW × 5 doses, study end day Day 26
# Procedure: as §1, §2, §3, §4, §5, §6, §7, §8, §9, §10
# FIG. 60 is a graph showing the mean tumor volume on different study days in the study groups as indicated according to Study 1 (MC38). The study end day was Day 26.
# [1] = RM-1 syngeneic prostate cancer model
# [2] = MC38 syngeneic colon cancer model
Compound,Tumor size (RM-1),TGI(%) (RM-1),"anti-tumor potency of anti-PD-1 antibody combined with the compound, compared to the antibody alone (RM-1; [1])",Tumor size (LL/2),TGI(%) (LL/2),"anti-tumor potency of anti-PD-1 antibody combined with the compound, compared to the antibody alone or the vehicle (LL/2)",TGI(%) (MC38),Tumor size (Mean ± SEM) (MC38) [mm^3],"anti-tumor potency of anti-PD-1 antibody combined with the compound, compared to the antibody alone or the vehicle (MC38; [2])","anti-tumor potency of the compound combined with anti-PD-1 antibody, compared to being used alone (RM-1; [1])","anti-tumor potency of the compound combined with anti-PD-1 antibody, compared to being used alone (MC38; [2])"
CCC(=O)c1csc(C(=O)c2c[nH]c3ccccc23)n1 [ARI-002],1744.11 ± 144.25,41,statistically significant increase,837.75 ± 117.58,62,statistically significant increase,45,1419.94 ± 141.48,statistically significant increase,–,–
COC(=O)c1csc(C(=O)c2c[nH]c3ccccc23)n1 [ARI-001],1732.55 ± 162.92,41,statistically significant increase,881.1 ± 93.59,60,statistically significant increase,37,1624.33 ± 148.56,statistically significant increase,statistically significant increase,statistically significant increase

# Source: patent US20230054194A1, “Methods of Treating Cancer” (ARIAGEN, INC., priority 2018, published 2023)
